Assay [1] deals with T1, human factor XIa (Homo sapiens, UniProt P03951).
T1 construct: purchased Kordia
As to the kind of experiment: Measurement of FXIa inhibition (fluorogenic peptide substrate Boc-Glu(OBzl)-Ala-Arg-AMC). The format is biochemical. Particulars: factor XIa from Kordia 0.45 nM, 15 min pre-incubation, 30 min at 22° C., fluorescence.

Assay [2] deals with human and animal plasma. As to the kind of experiment: Determination of anticoagulatory activity: activated partial thromboplastin time (aPTT) in plasma. Particulars: concentration of test substance which brings about a 1.5-fold extension of the aPTT; plasma in vitro, C.K. Prest kit. A digest of the protocol:
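Citrated plasma (human, mouse, rat, rabbit, pig, dog) incubated with varying compound concentrations and cephalin/kaolin PTT reagent for 3 minutes at 37° C.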

Each structure is given as a SMILES string. Counter-ions that a name gives are not always drawn.

T1 sequence (P03951 388-625 limits assumed): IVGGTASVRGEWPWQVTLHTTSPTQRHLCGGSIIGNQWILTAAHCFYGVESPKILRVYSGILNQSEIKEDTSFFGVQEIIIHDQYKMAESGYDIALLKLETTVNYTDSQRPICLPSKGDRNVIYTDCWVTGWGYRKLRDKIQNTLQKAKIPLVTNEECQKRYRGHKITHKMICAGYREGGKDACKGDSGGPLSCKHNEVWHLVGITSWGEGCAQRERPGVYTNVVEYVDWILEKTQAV
T1 sequence (P03951 19-387 partner limits assumed): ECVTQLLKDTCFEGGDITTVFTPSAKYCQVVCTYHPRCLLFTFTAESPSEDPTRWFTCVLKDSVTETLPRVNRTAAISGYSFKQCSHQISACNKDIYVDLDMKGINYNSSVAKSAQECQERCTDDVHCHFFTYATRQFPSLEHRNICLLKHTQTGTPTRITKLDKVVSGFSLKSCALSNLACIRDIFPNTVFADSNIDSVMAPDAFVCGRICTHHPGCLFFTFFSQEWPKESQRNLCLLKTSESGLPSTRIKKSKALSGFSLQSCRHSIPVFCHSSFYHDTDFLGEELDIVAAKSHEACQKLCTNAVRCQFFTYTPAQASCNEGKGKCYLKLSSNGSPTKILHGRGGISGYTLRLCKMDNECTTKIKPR

As a reminder, the IC50 is the concentration needed to halve the response being measured. Higher therefore signals a need for much substance. Consider `Cc1ccc(S(=O)(=O)N2CCCC2)cc1-c1cccc(C[C@H](NC(=O)[C@H]2CC[C@H](CN)CC2)C(=O)Nc2ccc(-c3noc(=O)[nH]3)cc2)c1` [Example 36, trans-4-(Aminomethyl)-N-[(2S)-3-[2′-methyl-5′-(pyrrolidin-1-ylsulphonyl)biphenyl-3-yl]-1-oxo-1-{[4-(5-oxo-4,5-dihydro-1,2,4-oxadiazol-3-yl)phenyl]amino}propan-2-yl]cyclohexanecarboxamide hydrochloride], for which, in assay [1], inhibition was half-maximal at 2.2 nM (IC50). The molecule also had an aPTT in assay [2] of 0.12 µmol/L.
In the same order, the values of `NC[C@H]1CC[C@H](C(=O)N[C@@H](Cc2cccc(-c3ccc(C(=O)NCCN4CCCCC4)cc3)c2)C(=O)Nc2ccc(-c3nnn[nH]3)cc2)CC1` [Example 37, 3′-[(2S)-2-({[trans-4-(Aminomethyl)cyclohexyl]carbonyl}amino)-3-oxo-3-{[4-(1H-tetrazol-5-yl)phenyl]amino}propyl]-N-[2-(piperidin-1-yl)ethyl]biphenyl-4-carboxamide hydrochloride] are 5.6 nM and 0.19 µmol/L.
In the same order, the values of `NC[C@H]1CC[C@H](C(=O)N[C@@H](Cc2cccc(-c3cnc(N)nc3)c2)C(=O)Nc2ccc(-c3nnn[nH]3)cc2)CC1` [Example 79, N-alpha-{[trans-4-(Aminomethyl)cyclohexyl]carbonyl}-3-(2-aminopyrimidin-5-yl)-N-[4-(1H-tetrazol-5-yl)phenyl]-L-phenylalaninamide hydrochloride] are 2.3 nM and 0.14 µmol/L.
For the molecule `NC[C@H]1CC[C@H](C(=O)N[C@@H](Cc2cccc(-c3cnc(N4CCNCC4)nc3)c2)C(=O)Nc2ccc(-c3nnn[nH]3)cc2)CC1` [Example 68, N-alpha-{[trans-4-(Aminomethyl)cyclohexyl]carbonyl}-3-[2-(piperazin-1-yl)pyrimidin-5-yl]-N-[4-(1H-tetrazol-5-yl)phenyl]-L-phenylalaninamide hydrochloride], in assay [1], the IC50 is 7.3 nM. For the same molecule, the aPTT in assay [2] came to 0.18 µmol/L.
In the same order, the values of `CN(C)C(=O)c1cccc(-c2cccc(C[C@H](NC(=O)[C@H]3CC[C@H](CN)CC3)C(=O)Nc3ccc(-c4nnn[nH]4)cc3)c2)c1` [Example 43, 3′-[(2S)-2-({[trans-4-(Aminomethyl)cyclohexyl]carbonyl}amino)-3-oxo-3-{[4-(1H-tetrazol-5-yl)phenyl]amino}propyl]-N,N-dimethylbiphenyl-3-carboxamide hydrochloride] are 5.2 nM and 0.26 µmol/L.
On the same counts, the results for `Cc1ccc(S(=O)(=O)NCc2ccccc2)cc1-c1cccc(C[C@H](NC(=O)[C@H]2CC[C@H](CN)CC2)C(=O)Nc2ccc(-c3noc(=O)[nH]3)cc2)c1` [Example 60, trans-4-(Aminomethyl)-N-[(2S)-3-[5′-(benzylsulphamoyl)-2′-methylbiphenyl-3-yl]-1-oxo-1-{[4-(5-oxo-4,5-dihydro-1,2,4-oxadiazol-3-yl)phenyl]amino}propan-2-yl]cyclohexanecarboxamide hydrochloride] are 1.4 nM and 0.21 µmol/L.
In the same order, the values of `NC[C@H]1CC[C@H](C(=O)N[C@@H](Cc2cccc(-c3cncc(S(=O)(=O)NC4CCNCC4)c3)c2)C(=O)Nc2ccc(-c3nnc(Cl)[nH]3)cc2)CC1` [Example 106, N-alpha-{[trans-4-(Aminomethyl)cyclohexyl]carbonyl}-N-[4-(3-chloro-4H-1,2,4-triazol-5-yl)phenyl]-3-[5-(piperidin-4-ylsulphamoyl)pyridin-3-yl]-L-phenylalaninamide hydrochloride] are 5.7 nM and 0.13 µmol/L.
Molecule `NC[C@H]1CC[C@H](C(=O)N[C@@H](Cc2cccc(-c3ccccc3S(=O)(=O)N3CCOCC3)c2)C(=O)Nc2ccc(-c3nn[nH]n3)cc2)CC1` [Example 54, trans-4-(Aminomethyl)-N-[(2S)-3-[2′-(morpholin-4-ylsulphonyl)biphenyl-3-yl]-1-oxo-1-{[4-(2H-tetrazol-5-yl)phenyl]amino}propan-2-yl]cyclohexanecarboxamide hydrochloride] returned an IC50 in assay [1] of 1.9 nM. The aPTT in assay [2] amounted to 0.28 µmol/L.
On the same counts, the results for `CN(C)c1ncc(-c2cccc(C[C@H](NC(=O)[C@H]3CC[C@H](CN)CC3)C(=O)Nc3ccc(-c4nnn[nH]4)cc3)c2)cn1` [Example 70, N-alpha-{[trans-4-(Aminomethyl)cyclohexyl]carbonyl}-3-[2-(dimethylamino)pyrimidin-5-yl]-N-[4-(1H-tetrazol-5-yl)phenyl]-L-phenylalaninamide hydrochloride] are 2.9 nM and 0.36 µmol/L.
Regarding `Cc1cc(N2CCOCC2)ncc1-c1cccc(C[C@H](NC(=O)[C@H]2CC[C@H](CN)CC2)C(=O)Nc2ccc(-c3nnc(Cl)[nH]3)cc2)c1` [Example 102, N-alpha-{[trans-4-(Aminomethyl)cyclohexyl]carbonyl}-N-[4-(3-chloro-4H-1,2,4-triazol-5-yl)phenyl]-3-[4-methyl-6-(morpholin-4-yl)pyridin-3-yl]-L-phenylalaninamide hydrochloride], in assay [1], the IC50 stood at 2.2 nM. The molecule also returned an aPTT in assay [2] of 0.43 µmol/L.
In the same order, the values of `CN1CCN(C(=O)c2ccc(-c3cccc(C[C@H](NC(=O)[C@H]4CC[C@H](CN)CC4)C(=O)Nc4ccc(-c5nnc(Cl)[nH]5)cc4)c3)cc2)CC1` [Example 27, trans-4-(Aminomethyl)-N-[(2S)-1-{[4-(3-chloro-4H-1,2,4-triazol-5-yl)phenyl]amino}-3-{4′-[(4-methylpiperazin-1-yl)carbonyl]biphenyl-3-yl}-1-oxopropan-2-yl]cyclohexanecarboxamide hydrochloride] are 4.7 nM and 0.3 µmol/L.
On the same counts, the results for `CON(C)C(=O)c1ccc(F)c(-c2cccc(C[C@H](NC(=O)[C@H]3CC[C@H](CN)CC3)C(=O)Nc3ccc(-c4nnn[nH]4)cc3)c2)c1` [Example 45, 3′-[(2S)-2-({[trans-4-(Aminomethyl)cyclohexyl]carbonyl}amino)-3-oxo-3-{[4-(1H-tetrazol-5-yl)phenyl]amino}propyl]-6-fluoro-N-methoxy-N-methylbiphenyl-3-carboxamide hydrochloride] are 5.8 nM and 0.3 µmol/L.
On the same counts, the results for `Cc1cc(N)ccc1-c1cccc(C[C@H](NC(=O)[C@H]2CC[C@H](CN)CC2)C(=O)Nc2ccc(-c3nnn[nH]3)cc2)c1` [Example 97, trans-4-(Aminomethyl)-N-[(2S)-3-(4′-amino-2′-methylbiphenyl-3-yl)-1-oxo-1-{[4-(1H-tetrazol-5-yl)phenyl]amino}propan-2-yl]cyclohexanecarboxamide hydrochloride] are 2.1 nM and 0.12 µmol/L.
Turning to `NC[C@H]1CC[C@H](C(=O)N[C@@H](Cc2cccc(-c3cccc(C(=O)NCCN4CCCC4)c3)c2)C(=O)Nc2ccc(-c3nnn[nH]3)cc2)CC1` [Example 61, 3′-[(2S)-2-({[trans-4-(Aminomethyl)cyclohexyl]carbonyl}amino)-3-oxo-3-{[4-(1H-tetrazol-5-yl)phenyl]amino}propyl]-N-[2-(pyrrolidin-1-yl)ethyl]biphenyl-3-carboxamide hydrochloride], the IC50 in assay [1] was 12 nM. Besides, in assay [2], the aPTT was 0.37 µmol/L.
On the same counts, the results for `NC[C@H]1CC[C@H](C(=O)N[C@@H](Cc2cccc(-c3cnc(N4CCOCC4)nc3)c2)C(=O)Nc2ccc(-c3n[nH]c(C(F)(F)C(F)(F)C(=O)O)n3)cc2)CC1` [Example 96, 3-(3-{4-[(N-{[trans-4-(Aminomethyl)cyclohexyl]carbonyl}-3-[2-(morpholin-4-yl)pyrimidin-5-yl]-L-phenylalanyl)amino]phenyl}-1H-1,2,4-triazol-5-yl)-2,2,3,3-tetrafluoropropanoic acid hydrochloride] are 3.3 nM and 0.19 µmol/L.
In the same order, the values of `Cc1ccc(S(=O)(=O)N(C)C)cc1-c1cccc(C[C@H](NC(=O)[C@H]2CC[C@H](CN)CC2)C(=O)Nc2ccc(-c3nnn[nH]3)cc2)c1` [Example 4, trans-4-(Aminomethyl)-N-[(2S)-3-[5′-(dimethylsulphamoyl)-2′-methylbiphenyl-3-yl]-1-oxo-1-{[4-(1H-tetrazol-5-yl)phenyl]amino}propan-2-yl]cyclohexanecarboxamide hydrochloride] are 1.5 nM and 0.21 µmol/L.
With `CC(C)N1CCC(NC(=O)c2cccc(-c3cccc(C[C@H](NC(=O)[C@H]4CC[C@H](CN)CC4)C(=O)Nc4ccc(-c5nnn[nH]5)cc4)c3)c2)CC1` [Example 32, 3′-[(2S)-2-({[trans-4-(Aminomethyl)cyclohexyl]carbonyl}amino)-3-oxo-3-{[4-(1H-tetrazol-5-yl)phenyl]amino}propyl]-N-[1-(propan-2-yl)piperidin-4-yl]biphenyl-3-carboxamide hydrochloride], the midpoint of inhibition in assay [1], the IC50, lay at 6.8 nM. Also, the aPTT in assay [2] stood at 0.18 µmol/L.
On the same counts, the results for `NC[C@H]1CC[C@H](C(=O)N[C@@H](Cc2cccc(-c3cccc(C(=O)NCCN4CCOCC4)c3)c2)C(=O)Nc2ccc(-c3nnn[nH]3)cc2)CC1` [Example 29, 3′-[(2S)-2-({[trans-4-(Aminomethyl)cyclohexyl]carbonyl}amino)-3-oxo-3-{[4-(1H-tetrazol-5-yl)phenyl]amino}propyl]-N-[2-(morpholin-4-yl)ethyl]biphenyl-3-carboxamide hydrochloride] are 5.5 nM and 0.37 µmol/L.
On the same counts, the results for `CN(C)c1ncc(-c2cccc(C[C@H](NC(=O)[C@H]3CC[C@H](CN)CC3)C(=O)Nc3ccc(-c4nnc(Cl)[nH]4)cc3)c2)cn1` [Example 93, N-alpha-{[trans-4-(Aminomethyl)cyclohexyl]carbonyl}-N-[4-(3-chloro-4H-1,2,4-triazol-5-yl)phenyl]-3-[2-(dimethylamino)pyrimidin-5-yl]-L-phenylalaninamide hydrochloride] are 5.3 nM and 0.48 µmol/L.

These data come from patent US20160244437A1, “SUBSTITUTED PHENYLALANINE DERIVATIVES” (BAYER PHARMA AKTIENGESELLSCHAFT, priority 2013, published 2016).
